The text below walks through data of patent US9193986B2, “Method for marking or immobilising a target structure” (Fraunhofer-Gesellschaft Zur Forderung Der Angewandten …, priority 2012, dated 2015).

The target of assay [1] is Albumen lysozyme (Gallus gallus, UniProt P00698). In words: Laccase-mediated coupling of structures with DOPA residue to a protein, MS analysis. The format is biochemical. Particulars: for formation of covalent adduct with lysozyme: equimolar and ten-fold excess, laccase, overnight, room temperature, pH 7.0; for conversion of lysozyme to the adduct: excess of the DOPA compound (ten-fold), FIGS. 5 and 8. Here is the method: The following solutions were prepared in 10 mM phosphate buffer pH 7.0: • a) Albumen lysozyme 1 mg/ml, corresponding to 70 μM (solution 1) • b) Compound A (biotin-DOPA) 1 mg in 3 mL, corresponding to 700 μM (solution 2) and a 70 μM dilution (solution 3) • c) Compound B (biotin-RGD-DOPA) 1,2 mg in 2 ml, corresponding to 700 μM (solution 4) and a 70 μM dilution (solution 5) • d) Laccase (Trametes vers., ASA Spezialenzyme GmbH) 1 mg/ml corresponding to 20 u/ml (solution 6)
The reaction was started by mixing 500 μl lysozyme solution (Solution 1) with in each case 500 μl of solution 2 to solution 5 (i.e. in each case equimolar and ten-fold excess) and addition and mixing in 10 μl/0.2 u laccase (solution 6). Lysozyme with 500 μl 10 mM phosphate buffer pH 7.0 and laccase (solution 6) was used as control. The samples were incubated overnight at room temperature and the next day an aliquot was freed from low molecular weight constituents and salts using a desalting column (Micro Bio-Spin P6, BioRad) equilibrated with deionised waters.
The thereby prepared reaction product was analysed in an AB Sciex TOF/TOF™ 5800 system.

The test system of assay [2] is integrin αvβ6 expressing cells (HT1299, SVEC). In words: Marking of integrin αvβ6 expressing cells with DOPA/FITC polypeptide, with and without laccase, FACS fluorescence after washing. Conditions: 5 μM polypeptide, without addition of laccase, washed three times with PBS, FIG. 1. The format is cell-based. How it is done:
Marking of integrin αvβ6 expressing cells:
Cell type: Cell lines HT1299 (lung tumor), HUVEC, SVEC
Polypeptide for the marking: Ac-SPRGDLAVLGHK(FITC)GG-DOPA-G, SEQ ID NO: 1
Polypeptide solution: 4 mg/ml polypeptide in water corresponding to 2 mM
20 mg/ml laccase from Trameters versicolor, 20 U/mg, ASA Spezialenzyme GmbH, Wolfenbüttel
All FAC measurements were made on a Cytomics FC500 (Beckman Coulter).
(§1) The cells were in each case washed twice with PBS and then taken up in an amount of ca. 10^5 cells/ml in PBS. 950 μl portions of the solution were added to 1-ml-FACS-test tubes. Marked polypeptides with and without prior treatment with laccase, were then added according to the following Table 1.
(§2) For this, 40 μl NaAc solution, 105 μl water, 15 μl peptide solution and 120 μl laccase were added in a typical […] polypeptide batch. Samples without laccase contained the corresponding additional volume of water, samples with other polypeptide concentrations contained correspondingly more polypeptide solution (cf. Example 2). After an incubation time of 1 minute 50 μl were added in each case to the cell suspensions or placed in the FACS test tubes.
(§3) After an incubation time of at least 15 minutes the cells were washed three times with 2 ml PBS in the test tube and the fluorescence of the cells was then measured on a cell sorter. The total fluorescence of the cells was measured.

Assay [3] has as its system cell lines expressing αvβ6 integrin (HUVEC, SVEC, HT1299). In words: Dependence of the binding on the polypeptide concentration (laccase-activated marking, FACS). The assay is classed as cell-based. Conditions: different concentrations, FIG. 2. Here is the method: as §1, §2, §3
Corresponding to the above experimental procedure (Example 1) various cell lines, all of which express αvβ6 integrin, were marked with different polypeptide concentrations.

Non-standard residues stand in square brackets, D forms with d. Residues, ends and D or L forms follow the SMILES beside them. No end group written: not given here. *: point of attachment. FITC = O=C1OC2(c3ccc(O)cc3Oc3cc(O)ccc32)c2ccc(NC(=S)*)cc21; Dopa = N[CH](Cc1ccc(O)c(O)c1)C(=O)O; X1 = O=C1NC2CSC(CCCCC(=O)*)C2N1

For `N=C(N)NCCCC(NC(=O)CNC(=O)CCCCC1SCC2NC(=O)NC21)C(=O)NCC(=O)NC(CC(=O)O)C(=O)NC(Cc1ccc(O)c(O)c1)C(=O)NCC(=O)O` (stereo not drawn) [Compound B, biotin-RGD-DOPA] (X1-GRGD[Dopa]G-OH; configuration not given here), in assay [1], the “formation of covalent adduct with lysozyme” value is “expected reaction products were found” and the “conversion of lysozyme to the adduct” value was “a complete conversion was not achieved”.

As to `NC(=O)C(Cc1ccc(O)c(O)c1)NC(=O)CCCCC1SCC2NC(=O)NC21` (stereo not drawn) [Compound A], in assay [1], the “formation of covalent adduct with lysozyme” value is reported as “expected reaction products were found” and the “conversion of lysozyme to the adduct” value was “a complete conversion was not achieved”.

With “Ac-SPRGDLAVLGHK(FITC)GG-DOPA-G (Ac-SPRGDLAVLGHK(FITC)GG[Dopa]G) [polypeptide]”, the “retention of the fluorescent polypeptide on the cells after washing” value in assay [2] is “can be washed again from the cells”. In addition, the “binding to cells as a function of polypeptide concentration” value in assay [3] is listed as “bind depending on the concentration”.
